Among the data in the supplement of paper PMC10307832 are relative viability values, retold here.

What all share (assay): relative viability (nuclei count vs DMSO), 5 days (fraction); higher = more cells survive
Compound in assay [1]: O=S(=O)(c1ccccc1)N(CC(F)(F)F)c1ccc(C(O)(C(F)(F)F)C(F)(F)F)cc1 + CCNC(=O)c1noc(-c2cc(C(C)C)c(O)cc2O)c1-c1ccc(CN2CCOCC2)cc1 [Luminespib] (partner 0.01 µM)
The procedure, abridged: (§1)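 Relative viability divides the nuclei count in treated wells by that in vehicle wells. Lung cancer cell lines were seeded in 1536-well plates, dosed by pin tool the next day, and fixed and stained after 5 days in one step with final 0.05% Triton X-100, 1% formaldehyde and 1 ug/ml Hoechst. Dosing was a single drug or a fixed anchor-drug dose plus five library-drug doses (not always all listed) in √10 steps, and values are medians of duplicate plates imaged at 4×.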

Compound in the assay “RO-3306 + Palbociclib”: C1=CC2=C(C=CC(=C2)C=C3C(=O)NC(=NCC4=CC=CS4)S3)N=C1 [RO-3306] + CC(=O)c1c(C)c2cnc(Nc3ccc(N4CCNCC4)cn3)nc2n(C2CCCC2)c1=O [Palbociclib] (partner 0.5 µM)
The procedure, abridged: as §1

Compound in the assay “RO-3306 + Foretinib”: C1=CC2=C(C=CC(=C2)C=C3C(=O)NC(=NCC4=CC=CS4)S3)N=C1 [RO-3306] + COc1cc2c(Oc3ccc(NC(=O)C4(C(=O)Nc5ccc(F)cc5)CC4)cc3F)ccnc2cc1OCCCN1CCOCC1 [Foretinib] (partner 0.25 µM)
In short, it runs like this:
as §1

Compound in assay [2]: O=S(=O)(c1ccccc1)N(CC(F)(F)F)c1ccc(C(O)(C(F)(F)F)C(F)(F)F)cc1 + N=C(N)NC(=N)NCCc1ccccc1 [Phenformin] (partner 250 µM)
The procedure, abridged:
as §1

With UMC-11, the relative viability in assay [1] (first compound 0.8 µM) amounted to 1.19; in assay [1] (first compound 2.53 µM), 1.13; in assay [1] (first compound 8 µM), 1.13; with RO-3306 + Palbociclib (first compound 0.01 µM), 0.305; with RO-3306 + Palbociclib (first compound 0.03162 µM), 0.319; with RO-3306 + Palbociclib (first compound 0.1 µM) it was 0.297. Further, the relative viability with RO-3306 + Palbociclib (first compound 0.3162 µM) came out at 0.309; in the assay with RO-3306 + Palbociclib (first compound 1 µM), 0.277; in the assay with RO-3306 + Foretinib (first compound 0.01 µM), 0.999; with RO-3306 + Foretinib (first compound 0.03162 µM), 0.772; with RO-3306 + Foretinib (first compound 0.1 µM) it was 1.05; with RO-3306 + Foretinib (first compound 0.3162 µM) it was 1.21. For the same cell line, the relative viability stood at 1.16 with RO-3306 + Foretinib (first compound 1 µM), 0.315 in assay [2] (first compound 0.8 µM), 0.295 in assay [2] (first compound 2.53 µM) and 0.315 in assay [2] (first compound 8 µM).
